Test results: patent publication US9315520B2, “2-amino-6-methyl-4,4a,5,6-tetrahydropyrano[3,4-d][1,3]thiazin-8a(8H)-yl-1,3-thiazol-4-yl amides” (Pfizer Inc., priority 2014, dated 2016)
Where a name gives a salt, the structure may show the parent alone.

Biological target: BACE1 (Homo sapiens (Human), UniProt P56817)
Assay: BACE1 Cell-Free Assay (fluorescence polarization)
Type: biochemical
Details: geometric mean of 2-4 determinations unless otherwise indicated (b: ≧5; c: single determination); read-out: BACE1 Cell-free Assay IC50
Description: This assay measures the inhibition of the beta-secretase enzyme as it cleaves a non-native peptide.
A synthetic APP substrate that can be cleaved by beta-secretase having N-terminal biotin and made fluorescent by the covalent attachment of Oregon Green at the Cys residue is used to assay beta-secretase activity in the presence or absence of the inhibitory compounds. […] The BACE1 enzyme is affinity purified material from conditioned media of CHO-K1 cells that have been transfected with a soluble BACE construct (BACE1deltaTM96His). […] Plates are covered and incubated for 3 hours at 37° C. […] The activity of the beta-secretase enzyme is detected by changes in the fluorescence polarization that occur when the substrate is cleaved by the enzyme.

Chain of BACE1 (P56817 46-457): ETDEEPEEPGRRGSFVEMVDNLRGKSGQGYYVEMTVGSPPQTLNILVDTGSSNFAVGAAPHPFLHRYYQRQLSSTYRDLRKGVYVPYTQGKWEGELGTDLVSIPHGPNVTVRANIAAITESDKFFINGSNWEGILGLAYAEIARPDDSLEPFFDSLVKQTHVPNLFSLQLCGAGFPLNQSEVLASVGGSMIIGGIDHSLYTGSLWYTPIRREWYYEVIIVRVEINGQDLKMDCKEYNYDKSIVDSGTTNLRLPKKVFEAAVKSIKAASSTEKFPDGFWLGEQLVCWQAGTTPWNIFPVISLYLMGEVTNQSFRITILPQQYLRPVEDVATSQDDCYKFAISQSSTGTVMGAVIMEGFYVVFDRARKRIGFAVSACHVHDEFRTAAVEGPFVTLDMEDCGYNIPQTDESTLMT

Row | IC50 | Compound
1 | 398 nM | C[C@H]1C[C@H]2CSC(N)=N[C@@]2(c2nc(NC(=O)c3ccn(CC(F)F)n3)cs2)CO1 [Example 87, N-{2-[(4aR,6S,8aR)-2-amino-6-methyl-4,4a,5,6-tetrahydropyrano[3,4-d][1,3]thiazin-8a(8H)-yl]-1,3-thiazol-4-yl}-1-(2,2-difluoroethyl)-1H-pyrazole-3-carboxamide]
2 | 12400 nM | Cc1cc(C(=O)Nc2csc([C@]34CO[C@@H](C)C[C@H]3CSC(N)=N4)n2)nn1C [Example 73, N-{2-[(4aR,6S,8aR)-2-amino-6-methyl-4,4a,5,6-tetrahydropyrano[3,4-d][1,3]thiazin-8a(8H)-yl]-1,3-thiazol-4-yl}-1,5-dimethyl-1H-pyrazole-3-carboxamide, trifluoroacetate salt]
3 | 9 nM | C[C@H]1C[C@H]2CSC(N)=N[C@@]2(c2nc(NC(=O)c3ccn(C(F)F)n3)cs2)CO1 [Example 4, N-{2-[(4aR,6S,8aR)-2-amino-6-methyl-4,4a,5,6-tetrahydropyrano[3,4-d][1,3]thiazin-8a(8H)-yl]-1,3-thiazol-4-yl}-1-(difluoromethyl)-1H-pyrazole-3-carboxamide]
4 | 145 nM | C[C@H]1C[C@H]2CSC(N)=N[C@@]2(c2nc(NC(=O)c3cnc(C(F)F)cn3)cs2)CO1 [Example 15, N-{2-[(4aR,6S,8aR)-2-amino-6-methyl-4,4a,5,6-tetrahydropyrano[3,4-d][1,3]thiazin-8a(8H)-yl]-1,3-thiazol-4-yl}-5-(difluoromethyl)pyrazine-2-carboxamide]
5 | 341 nM | CCc1nc(C(=O)Nc2csc([C@]34CO[C@@H](C)C[C@H]3CSC(N)=N4)n2)co1 [Example 42, N-{2-[(4aR,6S,8aR)-2-amino-6-methyl-4,4a,5,6-tetrahydropyrano[3,4-d][1,3]thiazin-8a(8H)-yl]-1,3-thiazol-4-yl}-2-ethyl-1,3-oxazole-4-carboxamide, trifluoroacetate salt]
6 | 103 nM | Cc1nc(C(=O)Nc2csc([C@]34CO[C@@H](C)C[C@H]3CSC(N)=N4)n2)co1 [Example 49, N-{2-[(4aR,6S,8aR)-2-amino-6-methyl-4,4a,5,6-tetrahydropyrano[3,4-d][1,3]thiazin-8a(8H)-yl]-1,3-thiazol-4-yl}-2-methyl-1,3-oxazole-4-carboxamide]
7 | 7 nM | C[C@H]1C[C@H]2CSC(N)=N[C@@]2(c2nc(NC(=O)c3coc(CF)n3)cs2)CO1 [Example 3, N-{2-[(4aR,6S,8aR)-2-amino-6-methyl-4,4a,5,6-tetrahydropyrano[3,4-d][1,3]thiazin-8a(8H)-yl]-1,3-thiazol-4-yl}-2-(fluoromethyl)-1,3-oxazole-4-carboxamide]
8 | 81 nM | C[C@H]1C[C@H]2CSC(N)=N[C@@]2(c2nc(NC(=O)c3ccn(C)n3)cs2)CO1 [Example 24, N-{2-[(4aR,6S,8aR)-2-amino-6-methyl-4,4a,5,6-tetrahydropyrano[3,4-d][1,3]thiazin-8a(8H)-yl]-1,3-thiazol-4-yl}-1-methyl-1H-pyrazole-3-carboxamide]
9 | 1830 nM | CC(C)n1cnc(C(=O)Nc2csc([C@]34CO[C@@H](C)C[C@H]3CSC(N)=N4)n2)c1 [Example 61, N-{2-[(4aR,6S,8aR)-2-amino-6-methyl-4,4a,5,6-tetrahydropyrano[3,4-d][1,3]thiazin-8a(8H)-yl]-1,3-thiazol-4-yl}-1-(propan-2-yl)-1H-imidazole-4-carboxamide, trifluoroacetate salt]

Further lines, the compound ahead of its results:

Row | Compound | IC50
10 | C[C@H]1C[C@H]2CSC(N)=N[C@@]2(c2nc(NC(=O)c3cc(C4CC4)on3)cs2)CO1 [Example 31, N-{2-[(4aR,6S,8aR)-2-amino-6-methyl-4,4a,5,6-tetrahydropyrano[3,4-d][1,3]thiazin-8a(8H)-yl]-1,3-thiazol-4-yl}-5-cyclopropyl-1,2-oxazole-3-carboxamide] | 3820 nM
11 | Cc1nc(C(=O)Nc2csc([C@]34CO[C@@H](C)C[C@H]3CSC(N)=N4)n2)c(C)o1 [Example 53, N-{2-[(4aR,6S,8aR)-2-amino-6-methyl-4,4a,5,6-tetrahydropyrano[3,4-d][1,3]thiazin-8a(8H)-yl]-1,3-thiazol-4-yl}-2,5-dimethyl-1,3-oxazole-4-carboxamide] | 65 nM
12 | C[C@H]1C[C@H]2CSC(N)=N[C@@]2(c2nc(NC(=O)c3cc(C4CCC4)nn3C)cs2)CO1 [Example 34, N-{2-[(4aR,6S,8aR)-2-amino-6-methyl-4,4a,5,6-tetrahydropyrano[3,4-d][1,3]thiazin-8a(8H)-yl]-1,3-thiazol-4-yl}-3-cyclobutyl-1-methyl-1H-pyrazole-5-carboxamide] | 1480 nM
13 | C[C@H]1C[C@H]2CSC(N)=N[C@@]2(c2nc(NC(=O)C3(C#N)CCC3)cs2)CO1 [Example 108, N-{2-[(4aR,6S,8aR)-2-amino-6-methyl-4,4a,5,6-tetrahydropyrano[3,4-d][1,3]thiazin-8a(8H)-yl]-1,3-thiazol-4-yl}-1-cyanocyclobutanecarboxamide] | 94 nM
14 | C[C@H]1C[C@H]2CSC(N)=N[C@@]2(c2nc(NC(=O)c3ccc(OC(F)F)cc3)cs2)CO1 [Example 21, N-{2-[(4aR,6S,8aR)-2-amino-6-methyl-4,4a,5,6-tetrahydropyrano[3,4-d][1,3]thiazin-8a(8H)-yl]-1,3-thiazol-4-yl}-4-(difluoromethoxy)benzamide] | 106 nM
15 | COc1cnc(C(=O)Nc2csc([C@]34CO[C@@H](C)C[C@H]3CSC(N)=N4)n2)c(C)c1 [Example 47, N-{2-[(4aR,6S,8aR)-2-amino-6-methyl-4,4a,5,6-tetrahydropyrano[3,4-d][1,3]thiazin-8a(8H)-yl]-1,3-thiazol-4-yl}-5-methoxy-3-methylpyridine-2-carboxamide] | 101 nM
16 | CCC(F)(F)Oc1ccc(C(=O)Nc2csc([C@]34CO[C@@H](C)C[C@H]3CSC(N)=N4)n2)nc1 [Example 104, N-{2-[(4aR,6S,8aR)-2-amino-6-methyl-4,4a,5,6-tetrahydropyrano[3,4-d][1,3]thiazin-8a(8H)-yl]-1,3-thiazol-4-yl}-5-(1,1-difluoropropoxy)pyridine-2-carboxamide] | 308 nM
17 | CC#CCOc1cnc(C(=O)Nc2csc([C@]34CO[C@@H](C)C[C@H]3CSC(N)=N4)n2)cn1 [Example 22, N-{2-[(4aR,6S,8aR)-2-amino-6-methyl-4,4a,5,6-tetrahydropyrano[3,4-d][1,3]thiazin-8a(8H)-yl]-1,3-thiazol-4-yl}-5-(but-2-yn-1-yloxy)pyrazine-2-carboxamide] | 13 nM
18 | C[C@H]1C[C@H]2CSC(N)=N[C@@]2(c2nc(NC(=O)c3ncc(OC(F)F)cn3)cs2)CO1 [Example 97, N-{2-[(4aR,6S,8aR)-2-amino-6-methyl-4,4a,5,6-tetrahydropyrano[3,4-d][1,3]thiazin-8a(8H)-yl]-1,3-thiazol-4-yl}-5-(difluoromethoxy)pyrimidine-2-carboxamide] | 177 nM
19 | C[C@H]1C[C@H]2CSC(N)=N[C@@]2(c2nc(NC(=O)C3CC(F)(F)C3)cs2)CO1 [Example 78, N-{2-[(4aR,6S,8aR)-2-amino-6-methyl-4,4a,5,6-tetrahydropyrano[3,4-d][1,3]thiazin-8a(8H)-yl]-1,3-thiazol-4-yl}-3,3-difluorocyclobutanecarboxamide, trifluoroacetate salt] | 1490 nM
20 | C[C@H]1C[C@H]2CSC(N)=N[C@@]2(c2nc(NC(=O)c3cc(C(F)(F)F)on3)cs2)CO1 [Example 32, N-{2-[(4aR,6S,8aR)-2-amino-6-methyl-4,4a,5,6-tetrahydropyrano[3,4-d][1,3]thiazin-8a(8H)-yl]-1,3-thiazol-4-yl}-5-(trifluoromethyl)-1,2-oxazole-3-carboxamide, trifluoroacetate salt] | 1400 nM
21 | C[C@H]1C[C@H]2CSC(N)=N[C@@]2(c2nc(NC(=O)c3ccncn3)cs2)CO1 [Example 66, N-{2-[(4aR,6S,8aR)-2-amino-6-methyl-4,4a,5,6-tetrahydropyrano[3,4-d][1,3]thiazin-8a(8H)-yl]-1,3-thiazol-4-yl}pyrimidine-4-carboxamide, trifluoroacetate salt] | 575 nM
22 | C[C@H]1C[C@H]2CSC(N)=N[C@@]2(c2nc(NC(=O)c3ccc(=O)n(C)c3)cs2)CO1 [Example 36, N-{2-[(4aR,6S,8aR)-2-amino-6-methyl-4,4a,5,6-tetrahydropyrano[3,4-d][1,3]thiazin-8a(8H)-yl]-1,3-thiazol-4-yl}-1-methyl-6-oxo-1,6-dihydropyridine-3-carboxamide] | 1410 nM
23 | CC(C)c1nc(C(=O)Nc2csc([C@]34CO[C@@H](C)C[C@H]3CSC(N)=N4)n2)co1 [Example 86, N-{2-[(4aR,6S,8aR)-2-amino-6-methyl-4,4a,5,6-tetrahydropyrano[3,4-d][1,3]thiazin-8a(8H)-yl]-1,3-thiazol-4-yl}-2-(propan-2-yl)-1,3-oxazole-4-carboxamide] | 16200 nM
24 | C[C@H]1C[C@H]2CSC(N)=N[C@@]2(c2nc(NC(=O)C3CCC3)cs2)CO1 [Example 93, N-{2-[(4aR,6S,8aR)-2-amino-6-methyl-4,4a,5,6-tetrahydropyrano[3,4-d][1,3]thiazin-8a(8H)-yl]-1,3-thiazol-4-yl}cyclobutanecarboxamide] | 376 nM

Same assay, conditions: read-out: BACE1 Cell-free Assay IC50

Row | Compound | IC50
25 | Cc1cc(F)cnc1C(=O)Nc1csc([C@]23CO[C@@H](C)C[C@H]2CSC(N)=N3)n1 [Example 13, N-{2-[(4aR,6S,8aR)-2-amino-6-methyl-4,4a,5,6-tetrahydropyrano[3,4-d][1,3]thiazin-8a(8H)-yl]-1,3-thiazol-4-yl}-5-fluoro-3-methylpyridine-2-carboxamide, formate salt] | 90 nM
